Assays:
[1] = test system: integrated stress response; experiment: Integrated stress response; type: cell-based
[2] = test system: neurite outgrowth; experiment: Neurite outgrowth; type: cell-based
[3] = test system: spared nerve injury (SNI) model; experiment: Spared nerve injury (SNI) neuropathic pain model; type: in vivo, mice

OCCCN1CC[C@@H]2C[C@H]1c1cc(-c3ccc(C(F)(F)F)cc3)ccc12 [FEM-1689, 3-((1S,5R)-8-(4-(Trifluoromethyl)phenyl)-1,3,4,5-tetrahydro-2H-1,5-methanobenzo[c]azepin-2-yl) propan-1-ol]
effect on the integrated stress response [1]: inhibits the integrated stress response | effect on neurite outgrowth [2]: promotes neurite outgrowth | analgesic effect after SNI ([3]; global σ2R/TMEM97 knockout mouse): fails to produce an analgesic effect | mechanical hypersensitivity after SNI ([3]; wild-type male and female mice): reverses mechanical hypersensitivity

From US20250387403A1, “SELECTIVE SIGMA-2 RECEPTOR LIGANDS AS MODULATORS OF TMEM97” (BOARD OF REGENTS, THE UNIVERSITY OF TEXAS SYSTEM, priority 2022, published 2025)
